US10464890B2, “PGAM1 inhibitors and methods related thereto” (Emory University, priority 2011, dated 2019)
Entries after “also recorded” stand apart in the source; their conditions may differ.

Legend:
H1299 cells xenograft = assay: H1299 xenograft in nude mice; type: in vivo
[1] = test system: peripheral blood mononucleocytes and bone marrow CD34+ cells from healthy donors; assay: Cells from healthy human donors; type: cell-based
Description: Approval of use of human specimens was given by the Institutional Review Board of Emory University School of Medicine. All clinical samples were obtained with informed consent with approval by the Emory University Institutional Review Board. Clinical information for the patients was obtained from the pathological files at Emory University Hospital under the guidelines and with approval from the Institutional Review Board of Emory University School of Medicine and according to the Health Insurance Portability and Accountability Act. Only samples from patients that were not previously treated with chemotherapy or radiation therapy were used. Mononuclear cells (MNCs) were isolated from peripheral blood and bone marrow samples from human leukemia patients or peripheral blood samples from healthy donors using lymphocyte separation medium (Cellgro).
Only samples from patients that were not previously treated with chemotherapy or radiation therapy were used. Mononuclear cells (MNCs) were isolated from peripheral blood and bone marrow samples from human leukemia patients or peripheral blood samples from healthy donors using lymphocyte separation medium (Cellgro).

[2] = 100 mg/kg/day i.p. for 21 days from 6 days post-injection, vs vehicle

O=C1c2ccccc2C(=O)c2c1cc(S(=O)(=O)Nc1ccc(C(F)(F)F)cc1)c(O)c2O [PGMI-004A, N-(4-trifluoromethyl)-penyl-3,4-dihydroxy-9,10-dioxo-2-anthracenesulfonamide]
tumor growth (H1299 cells xenograft; [2]): significantly decreased
tumor size (H1299 cells xenograft; [2]): significantly decreased
PGAM1 enzyme activity in resected tumors (H1299 cells xenograft; xenograft nude mice treated with PGMI-004A): effectively inhibits PGAM1 enzyme activity
cell viability of CD34+ cells isolated from bone marrow samples ([1]; four healthy donors): did not affect cell viability
cell viability of mononucleocytes in peripheral blood samples ([1]; two healthy human donors, 120 h): no toxicity; also recorded: did not affect cell viability
